From ChEMBL document CHEMBL1681744, “1-((3S,4S)-4-amino-1-(4-substituted-1,3,5-triazin-2-yl) pyrrolidin-3-yl)-5,5-difluoropiperidin-2-one inhibitors of DPP-4 for the treatment of type 2 diabetes” (Bioorg Med Chem Lett, 2011)
Activity calls are given as the source filed them. No cut-off for these calls is given here.

Columns and labels:
Cytochrome P450 2D6 = Cytochrome P450 2D6 (Homo sapiens, UniProt P10635); assay: Inhibition of CYP2D6; format: ADME
[1] = Oral bioavailability in dog; format: ADME, organism-based, Canis lupus familiaris; details: in vivo
Cytochrome P450 1A2 = target: T1, Cytochrome P450 1A2 (Homo sapiens, UniProt P05177); assay: Inhibition of CYP1A2; format: ADME
T1 sequence (P05177 whole entry): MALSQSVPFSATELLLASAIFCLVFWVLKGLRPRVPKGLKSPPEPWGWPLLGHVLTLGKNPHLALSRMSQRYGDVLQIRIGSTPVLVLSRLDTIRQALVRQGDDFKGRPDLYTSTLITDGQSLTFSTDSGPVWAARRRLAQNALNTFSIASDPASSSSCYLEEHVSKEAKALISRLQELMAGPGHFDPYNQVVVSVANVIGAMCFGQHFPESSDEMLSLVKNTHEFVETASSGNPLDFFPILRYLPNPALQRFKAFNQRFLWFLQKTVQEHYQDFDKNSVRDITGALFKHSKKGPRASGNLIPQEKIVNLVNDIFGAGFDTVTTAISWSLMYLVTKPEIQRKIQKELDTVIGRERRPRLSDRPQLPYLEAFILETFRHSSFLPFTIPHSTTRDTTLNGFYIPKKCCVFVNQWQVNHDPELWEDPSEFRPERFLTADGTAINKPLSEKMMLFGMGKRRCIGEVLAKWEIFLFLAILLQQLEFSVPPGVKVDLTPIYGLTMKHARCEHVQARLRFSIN

[2] = Apparent permeability from apical to basolateral side of MDCK cells by RRCK assay; format: ADME, cell-based, Canis lupus familiaris; details: dog
Cytochrome P450 3A4 = Cytochrome P450 3A4 (Homo sapiens, UniProt P08684); assay: Inhibition of CYP3A4; format: ADME
Cytochrome P450 2C9 = Cytochrome P450 2C9 (Homo sapiens, UniProt P11712); assay: Inhibition of CYP2C9; format: ADME
Dipeptidyl peptidase 8 = Dipeptidyl peptidase 8 (Homo sapiens, UniProt Q6V1X1)
[3] = Clearance in rat plasma at 1 mg/kg, iv and 5 mg/kg, po; format: ADME, organism-based
[4] = Volume of distribution at steady state in dog; format: ADME, organism-based, Canis lupus familiaris; details: in vivo, read-out: Vdss
[5] = Fraction unbound in human plasma; format: ADME, cell-free
[6] = Half life in rat at 1 mg/kg, iv and 5 mg/kg, po; format: ADME, organism-based; details: in vivo
[7] = Clearance in dog; format: ADME, organism-based, Canis lupus familiaris; details: in vivo
[8] = Oral bioavailability in rat at 5 mg/kg; format: ADME, organism-based; details: in vivo
[9] = Volume of distribution at steady state in rat at 1 mg/kg, iv; format: ADME, organism-based; parameters: dose 1 mg/kg, route intravenous; details: in vivo, read-out: Vdss
[10] = Half life in dog; format: ADME, organism-based, Canis lupus familiaris; details: in vivo
Liver microsomes = assay: Intrinsic clearance in human liver microsomes; format: ADME, Microsome
Dipeptidyl peptidase 4 = Dipeptidyl peptidase 4 (Homo sapiens, UniProt P27487)
Dipeptidyl peptidase 2 = Dipeptidyl peptidase 2 (Homo sapiens, UniProt Q9UHL4); assay: Inhibition of DPP2
[11] = Fraction unbound in rat plasma; format: ADME, cell-free
Rattus norvegicus = assay: Ex vivo inhibition of DPP4 in rat at 5 mg/kg, po after 16 hrs; format: functional, organism-based; parameters: dose 5 mg/kg

Dipeptidyl peptidase 8, sequence (Q6V1X1 whole entry): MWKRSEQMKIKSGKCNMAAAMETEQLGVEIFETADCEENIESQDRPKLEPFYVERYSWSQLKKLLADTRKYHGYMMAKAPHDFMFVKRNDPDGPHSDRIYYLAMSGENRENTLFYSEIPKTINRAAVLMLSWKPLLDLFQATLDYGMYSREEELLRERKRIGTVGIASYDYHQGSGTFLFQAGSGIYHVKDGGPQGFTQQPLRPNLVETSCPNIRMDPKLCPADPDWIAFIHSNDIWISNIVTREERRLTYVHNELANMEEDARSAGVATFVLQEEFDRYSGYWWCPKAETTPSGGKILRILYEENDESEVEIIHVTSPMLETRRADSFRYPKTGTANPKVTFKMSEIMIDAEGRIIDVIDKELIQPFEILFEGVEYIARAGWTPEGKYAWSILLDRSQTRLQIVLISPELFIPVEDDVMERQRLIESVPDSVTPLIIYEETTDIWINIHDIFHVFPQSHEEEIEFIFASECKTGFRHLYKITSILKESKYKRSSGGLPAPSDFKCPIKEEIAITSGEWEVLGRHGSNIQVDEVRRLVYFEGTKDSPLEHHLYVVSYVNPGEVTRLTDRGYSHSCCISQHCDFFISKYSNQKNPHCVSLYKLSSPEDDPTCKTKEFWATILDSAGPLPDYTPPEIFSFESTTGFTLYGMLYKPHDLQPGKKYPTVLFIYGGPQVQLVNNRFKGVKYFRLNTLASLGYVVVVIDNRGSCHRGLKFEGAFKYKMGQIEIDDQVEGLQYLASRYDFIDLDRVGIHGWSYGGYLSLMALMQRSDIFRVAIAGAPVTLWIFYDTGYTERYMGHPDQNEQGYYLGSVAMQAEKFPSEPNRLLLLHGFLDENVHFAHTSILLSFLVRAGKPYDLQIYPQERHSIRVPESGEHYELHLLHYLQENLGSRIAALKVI
Dipeptidyl peptidase 4, sequence (P27487 whole entry): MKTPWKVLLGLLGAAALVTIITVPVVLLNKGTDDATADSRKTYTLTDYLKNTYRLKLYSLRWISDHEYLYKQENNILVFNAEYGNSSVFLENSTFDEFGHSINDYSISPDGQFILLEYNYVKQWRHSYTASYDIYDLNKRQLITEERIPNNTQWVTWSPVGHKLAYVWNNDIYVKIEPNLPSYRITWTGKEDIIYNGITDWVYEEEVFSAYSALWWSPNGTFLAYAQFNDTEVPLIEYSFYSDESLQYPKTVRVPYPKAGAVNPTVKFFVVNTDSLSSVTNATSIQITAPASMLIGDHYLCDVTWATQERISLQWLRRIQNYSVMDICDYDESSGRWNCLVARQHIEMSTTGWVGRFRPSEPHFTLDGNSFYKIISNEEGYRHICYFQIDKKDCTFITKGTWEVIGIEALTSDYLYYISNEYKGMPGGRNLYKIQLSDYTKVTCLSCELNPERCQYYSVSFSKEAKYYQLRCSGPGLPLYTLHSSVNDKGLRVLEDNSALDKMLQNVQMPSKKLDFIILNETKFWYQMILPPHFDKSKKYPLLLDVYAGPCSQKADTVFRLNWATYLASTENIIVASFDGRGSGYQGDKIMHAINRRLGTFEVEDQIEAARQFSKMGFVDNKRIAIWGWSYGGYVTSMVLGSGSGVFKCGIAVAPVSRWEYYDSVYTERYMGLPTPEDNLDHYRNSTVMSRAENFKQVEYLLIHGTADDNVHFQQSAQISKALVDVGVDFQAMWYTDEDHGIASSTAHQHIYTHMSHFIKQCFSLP
Cytochrome P450 2C9, sequence (P11712 whole entry): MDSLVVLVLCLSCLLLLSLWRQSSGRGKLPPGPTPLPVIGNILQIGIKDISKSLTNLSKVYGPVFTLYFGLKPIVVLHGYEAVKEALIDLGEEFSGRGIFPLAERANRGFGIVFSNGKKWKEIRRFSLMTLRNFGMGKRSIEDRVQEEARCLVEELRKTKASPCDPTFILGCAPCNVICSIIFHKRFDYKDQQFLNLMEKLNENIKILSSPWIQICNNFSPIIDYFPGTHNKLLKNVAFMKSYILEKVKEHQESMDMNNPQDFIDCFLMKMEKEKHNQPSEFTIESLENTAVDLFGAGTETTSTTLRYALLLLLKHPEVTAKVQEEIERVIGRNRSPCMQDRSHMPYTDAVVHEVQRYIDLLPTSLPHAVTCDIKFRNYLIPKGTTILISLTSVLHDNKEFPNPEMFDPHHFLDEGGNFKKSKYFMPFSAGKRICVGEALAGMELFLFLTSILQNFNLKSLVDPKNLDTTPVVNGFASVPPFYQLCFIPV
Cytochrome P450 2D6, sequence (P10635 whole entry): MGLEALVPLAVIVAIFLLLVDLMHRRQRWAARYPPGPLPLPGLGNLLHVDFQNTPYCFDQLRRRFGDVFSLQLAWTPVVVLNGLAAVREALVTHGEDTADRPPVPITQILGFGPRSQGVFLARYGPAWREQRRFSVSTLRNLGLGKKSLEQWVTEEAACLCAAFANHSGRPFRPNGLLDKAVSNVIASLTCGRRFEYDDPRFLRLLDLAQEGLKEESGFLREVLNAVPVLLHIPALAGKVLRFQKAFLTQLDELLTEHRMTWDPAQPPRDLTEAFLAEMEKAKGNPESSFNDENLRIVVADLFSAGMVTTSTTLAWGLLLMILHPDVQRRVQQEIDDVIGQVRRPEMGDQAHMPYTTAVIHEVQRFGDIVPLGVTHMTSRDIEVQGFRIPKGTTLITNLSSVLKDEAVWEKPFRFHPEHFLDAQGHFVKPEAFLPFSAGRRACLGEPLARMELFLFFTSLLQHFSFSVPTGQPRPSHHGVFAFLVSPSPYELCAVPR
Cytochrome P450 3A4, sequence (P08684 whole entry): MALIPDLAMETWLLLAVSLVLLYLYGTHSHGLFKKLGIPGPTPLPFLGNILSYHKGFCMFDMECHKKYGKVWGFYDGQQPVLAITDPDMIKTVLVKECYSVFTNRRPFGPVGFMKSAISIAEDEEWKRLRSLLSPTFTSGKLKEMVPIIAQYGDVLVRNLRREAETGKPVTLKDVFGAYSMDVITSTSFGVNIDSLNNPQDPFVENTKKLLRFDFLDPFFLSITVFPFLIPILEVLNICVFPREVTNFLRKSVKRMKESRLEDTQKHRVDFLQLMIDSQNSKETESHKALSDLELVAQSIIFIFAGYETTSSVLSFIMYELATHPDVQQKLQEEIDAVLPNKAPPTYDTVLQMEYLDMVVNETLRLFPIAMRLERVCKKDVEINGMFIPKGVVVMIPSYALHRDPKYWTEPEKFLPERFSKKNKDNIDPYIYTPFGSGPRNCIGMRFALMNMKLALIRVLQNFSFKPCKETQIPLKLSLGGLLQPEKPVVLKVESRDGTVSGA

`N[C@H]1CN(c2ncnc(N3CCC(F)(F)C3)n2)C[C@@H]1N1CC(F)(F)CCC1=O` showed an IC50 (Cytochrome P450 2D6) of over 15000 nM, a bioavailability [1] of 150% and an IC50 (Cytochrome P450 1A2) of over 15000 nM. It also gave a Papp A→B [2] of 5 ×10⁻⁶ cm/s, an IC50 (Cytochrome P450 3A4) of over 15000 nM and an IC50 (Cytochrome P450 2C9) of over 15000 nM. It also gave an IC50 (Dipeptidyl peptidase 8) of over 30000 nM, a clearance [3] of 46 mL/min/kg and a Vd [4] of 1.9 L/kg. The fraction unbound [5] was 0.83, the half-life [6] was 3.6 h and the clearance [7] was 7.2 mL/min/kg. For the same molecule, the bioavailability [8] was 90%, the Vd [9] was 8.4 L/kg and the half-life [10] was 5.9 h.

`N[C@H]1CN(c2cc(NC3CC3)ncn2)C[C@@H]1N1CCCCC1=O` gave a clearance (Liver microsomes) of under 7 µL/min/mg.

`N[C@H]1CN(c2cc(-c3cc(F)c(F)cc3F)ncn2)C[C@@H]1N1CCCC1=O` gave a clearance (Liver microsomes) of under 7 µL/min/mg and an IC50 (Dipeptidyl peptidase 4) of 488 nM.

`COc1ccc(-c2cc(N3C[C@H](N)[C@@H](N4CCCCC4=O)C3)ncn2)cn1` showed a Papp A→B [2] of 2.7 ×10⁻⁶ cm/s and an IC50 (Dipeptidyl peptidase 2) of over 30000 nM.

Work on `N[C@H]1CN(c2cc(N3CCC(F)(F)C3)ncn2)C[C@@H]1N1CC(F)(F)CCC1=O` yielded a Papp A→B [2] of 3.4 ×10⁻⁶ cm/s, an IC50 (Dipeptidyl peptidase 8) of over 30000 nM and a clearance [3] of 84 mL/min/kg. It also gave a half-life [6] of 2.4 h, a bioavailability [8] of 50% and a Vd [9] of 5.7 L/kg. The fraction unbound [11] was 0.82.

Molecule `N[C@H]1CN(c2cc(N3CCc4nocc4C3)ncn2)C[C@@H]1c1ccccc1` has a clearance (Liver microsomes) of 56 µL/min/mg and an IC50 (Dipeptidyl peptidase 4) of 1.6 nM.

In the case of `N[C@H]1CN(c2cc(N3CCc4nocc4C3)ncn2)C[C@@H]1N1CCCC1=O`, the clearance (Liver microsomes) is reported as under 7 µL/min/mg.

With `N[C@H]1CN(c2ncnc(-c3ccccc3)n2)C[C@@H]1N1CCCCC1=O` the Papp A→B [2] was 35.7 ×10⁻⁶ cm/s and the IC50 (Dipeptidyl peptidase 2) was over 30000 nM.

With `N[C@H]1CN(c2cc(N3CCC(F)(F)C3)ncn2)C[C@@H]1N1CCCCC1=O` the inhibition (Rattus norvegicus) was “Active”, the IC50 (Dipeptidyl peptidase 4) was 26 nM and the Papp A→B [2] was 1.8 ×10⁻⁶ cm/s. The IC50 (Dipeptidyl peptidase 8) was over 30000 nM, the clearance [3] was 60.1 mL/min/kg and the half-life [6] was 0.78 h. For the same molecule, the bioavailability [8] was 21%, the Vd [9] was 2.3 L/kg and the fraction unbound [11] was 0.75.

Work on `Cc1nc(N2C[C@H](N)[C@@H](N3CC(F)(F)CCC3=O)C2)cc(N2CCC(F)(F)C2)n1` yielded an IC50 (Dipeptidyl peptidase 4) of 13 nM, a Papp A→B [2] of 3.9 ×10⁻⁶ cm/s and an IC50 (Dipeptidyl peptidase 8) of over 30000 nM.

In the case of `N[C@H]1CN(c2cc(-c3cc(F)cc(F)c3F)ncn2)C[C@@H]1c1ccccc1`, the clearance (Liver microsomes) is reported as 85 µL/min/mg.

`N[C@H]1CN(c2cc(-c3cc(F)c(F)cc3F)ncn2)C[C@@H]1N1CCCCC1=O` gave a clearance (Liver microsomes) of under 7.2 µL/min/mg and an IC50 (Dipeptidyl peptidase 4) of 47 nM.

With `N[C@H]1CN(c2cc(N3CCc4nocc4C3)ncn2)C[C@@H]1N1CCCCC1=O` the clearance (Liver microsomes) was under 7.5 µL/min/mg and the IC50 (Dipeptidyl peptidase 4) was 12 nM.

`N[C@H]1CN(c2cc(NC3CC3)ncn2)C[C@@H]1N1CCCC1=O` gave a clearance (Liver microsomes) of under 7 µL/min/mg.

With `N[C@H]1CN(c2ncnc(N3CCC(F)(F)C3)n2)C[C@@H]1N1CCCCC1=O` the inhibition (Rattus norvegicus) was “Active”, the Papp A→B [2] was 3.8 ×10⁻⁶ cm/s and the IC50 (Dipeptidyl peptidase 8) was over 30000 nM. For the same molecule, the clearance [3] was 36.8 mL/min/kg, the half-life [6] was 5 h and the bioavailability [8] was 52%. The Vd [9] was 4.7 L/kg and the fraction unbound [11] was 0.86.

Work on `N[C@H]1CN(c2cc(NC3CC3)ncn2)C[C@@H]1c1ccccc1` yielded a clearance (Liver microsomes) of 38 µL/min/mg and an IC50 (Dipeptidyl peptidase 4) of 19 nM.
